These are literature values, as cited in patent publication US11471445B2, “Compositions for the prevention and treatment of acute renal injury” (AKI Therapeutics ApS, priority 2017, dated 2022).

Data set [1] concerns rat heart. As to conditions: pretreatment.
For data set [2], the system named is hepatic IRI. As to conditions: rats, pretreatment.
Data set [3] concerns cerebral ischemia-reperfusion injury. The settings on record: mice.
For data set [4] the following is noted: 30 min after intravenous injection.
Data set [5] concerns IRI. As to conditions: in vivo.

As for `COc1ccc(-c2cc(=O)c3c(O)cc(O[C@@H]4O[C@H](CO[C@@H]5O[C@@H](C)[C@H](O)[C@@H](O)[C@H]5O)[C@@H](O)[C@H](O)[C@H]4O)cc3o2)cc1O` [diosmin], the “consequences of IRI in ex vivo rat heart” value in data set [1] was “ameliorates the consequences of IRI”. Moreover, the “consequences of hepatic IRI” value in data set [2] is listed as “ameliorates the consequences of IRI”. Moreover, in data set [3], the “effect on cerebral ischemia-reperfusion injury” value was “ameliorates the consequences of IRI”.
“triptolide-lysozyme conjugate: Triptolide conjugated to lysozyme by an ester linkage with a succinic acid spacer”: the “renal concentration of conjugate relative to equivalent dose of drug” value in data set [4] is listed as 20 fold.
In the case of `COc1ccc([C@@H]2CC(=O)c3c(O)cc(O[C@@H]4O[C@H](CO[C@@H]5O[C@@H](C)[C@H](O)[C@@H](O)[C@H]5O)[C@@H](O)[C@H](O)[C@H]4O)cc3O2)cc1O` [Hesperidin, hesperidin], in data set [5], the “effect on IRI / ischemia” value is listed as “protective effects on IRI in various organs”.
For the compound `CC(C)[C@]12O[C@H]1[C@@H]1O[C@]13[C@]1(O[C@H]1C[C@H]1C4=C(CC[C@@]13C)C(=O)OC4)[C@@H]2O` [Triptolide], the water solubility result is reported as “very low water solubility”.
As for β-escin, the “effect on IRI / ischemia” value in data set [5] is recorded as “ameliorates the effects of focal cerebral ischemia”.
